# From PMC9681850, “Structural basis of synthetic agonist activation of the nuclear receptor REV-ERB” (Nature Communications, 2022)
# “And” between values parts separate entries of the source, which are not always exact repeats. Identical values can stand only once.
# How the values were obtained:
# REV-ERBα F488A = target: T1, REV-ERBα F488A (Homo sapiens, UniProt P20393, F488A); assay: two-hybrid reporter assay with mutant receptor; type: cell-based; settings: F488A vs WT
# T1 construct: WT or mutant Gal4DBD- full length REV-ERBα fusion and NCoR1-VP16 fusion protein; expressed in transfected cells; host or cells: HEK293 cells with Gal4UAS luciferase reporter stably integrated
# Method: The removal of the bulkier Phe488 sidechain may allow for the ligand binding pocket to wrap around the ligand more tightly, which may explain the higher activity of this mutant REV-ERB.
# The NCoR-Vp16 plasmid and REV-ERBα/β-FL GAL4-DBD wild-type or point mutation plasmids were incubated with the transfection agent, Lipofectamine 2000. GFP plasmid was also in the transfection mix to confirm transfection efficiency. HEK cells were plated in 10 cm dishes for western blot analysis, and HEK UAS-luc cells were plated in 96 well plates for luciferase assay analysis. Prior to cellular adherence, transfection mix was added. The cells and transfection mix were incubated at 37 °C in a humidified atmosphere of 5% CO2. The transfection incubation lasted overnight for luciferase assays and 48 h for protein isolation/western blot analysis. For luciferase assays, REV-ERB agonists were added in an 11-point serial dilution the day following overnight transfection. Cells were incubated with the compound for 24 h, prior to luciferin addition and luminescence read out.
# HepG2 cells = assay: cell viability by crystal violet staining; type: cell-based, human; settings: for cell viability (Fig 2a source data): crystal violet, normalized to DMSO, single replicates
# Method: Cellular viability was tested in two cell types, human hepatocarcinoma HepG2 cells and proliferating C2C12 mouse myoblast cells.
# Data are presented as mean ± SEM. Source data are available as a Source Data file.
# The human hepatocellular carcinoma cell line, HepG2 cells (ATCC HB-8065), were cultured in 10% FBS 1% L-Glu MEM at 37 °C in a humidified atmosphere of 5% CO2. Prior to RNA extraction cells were treated with either DMSO or REV-ERB agonist for 24 h. The C2C12 proliferating mouse myoblast cells (ATCC, CRL-1772) were cultured in 10% FBS DMEM at 37 °C in a humidified atmosphere of 5% CO2. Prior to RNA extraction cells were treated with either DMSO or REV-ERB agonist for 24 h. […]
# […] Media was removed, and cells were incubated with 0.5% crystal violet solution for 20 min at room temperature with mild agitation. Cells were washed four times with tap water before being air drying overnight. Cells were incubated in methanol for 20 min with mild agitation. Absorbance was read at 570 nm, and readings were normalized to vehicle (DMSO) treated cells.
# C2C12 cells = assay: relative gene expression of REV-ERB responsive genes by qPCR; type: cell-based, mouse; settings: C2C12, 5uM; single replicates; listed as SR1267
# Source text: We next determined whether STL1267 can regulate characterized REV-ERB modulated genes in cell lines expressing REV-ERB naturally. Five micromolar doses of both drugs were used in cell-based experiments from this point on. REV-ERB is an established component of the core molecular clock repressing the expression of core clock gene Bmal1[6],[27] as well as others[28],[29]. […] In skeletal muscle, REV-ERB agonism increases the expression of a wide variety of genes important in mitochondrial function.
# The human hepatocellular carcinoma cell line, HepG2 cells (ATCC HB-8065), were cultured in 10% FBS 1% L-Glu MEM at 37 °C in a humidified atmosphere of 5% CO2. Prior to RNA extraction cells were treated with either DMSO or REV-ERB agonist for 24 h. The C2C12 proliferating mouse myoblast cells (ATCC, CRL-1772) were cultured in 10% FBS DMEM at 37 °C in a humidified atmosphere of 5% CO2. Prior to RNA extraction cells were treated with either DMSO or REV-ERB agonist for 24 h. Prior to crystal violet cytotoxicity assay, cells were treated with either DMSO or REV-ERB agonist for 48 h.
# Mouse tissue was homogenized using a bullet blender. DNA/protein was removed by phase separation using BCP/chloroform. The supernatant (RNA containing fraction) was collected, and RNA was precipitated using isopropanol. The RNA pellets were washed with 75% ethanol and resolubilized in RNAse free water. The purity of the RNA was tested by agarose gel prior to cDNA synthesis. Total RNA was harvested from HepG2 and C2C12 using the RNeasy mini kit according to manufacturer’s instructions (Qiagen).
# Isolated RNA was reverse transcribed into cDNA using the qScript^TMcDNA Synthesis kit according to the manufacturer’s instructions (QuantaBio). Quantative PCR (qPCR) was performed on a QuantStudio^TM 6 Flex or QuantStudio^TM 7 Flex (Life Technologies) using SYBR^TM Select Master Mix (Applied BioSystems) with select primers (Table S2). Gene expression was normalized to Ppia for all data sets. Oligonucleotide sequences are provided in Supplementary Table 2.
# T1 sequence (P20393 whole entry F488A, the tested form may be a part): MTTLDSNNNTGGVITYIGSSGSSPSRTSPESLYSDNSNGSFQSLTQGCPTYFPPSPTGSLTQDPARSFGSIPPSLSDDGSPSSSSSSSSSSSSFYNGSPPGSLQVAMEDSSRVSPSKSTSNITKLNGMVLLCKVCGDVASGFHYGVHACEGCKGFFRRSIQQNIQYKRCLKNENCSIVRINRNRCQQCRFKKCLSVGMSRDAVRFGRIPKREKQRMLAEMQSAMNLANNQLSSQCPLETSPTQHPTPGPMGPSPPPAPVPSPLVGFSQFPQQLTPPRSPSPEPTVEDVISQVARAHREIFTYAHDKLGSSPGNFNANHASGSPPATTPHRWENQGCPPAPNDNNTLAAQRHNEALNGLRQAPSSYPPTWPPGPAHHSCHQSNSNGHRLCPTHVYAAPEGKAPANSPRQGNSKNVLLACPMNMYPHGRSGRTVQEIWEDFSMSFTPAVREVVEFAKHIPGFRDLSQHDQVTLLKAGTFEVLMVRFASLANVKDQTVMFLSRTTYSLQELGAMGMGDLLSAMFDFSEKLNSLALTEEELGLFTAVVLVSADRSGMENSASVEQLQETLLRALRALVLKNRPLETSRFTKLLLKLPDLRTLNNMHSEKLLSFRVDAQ
# T1 sequence (O75376 whole entry partner, the tested form may be a part): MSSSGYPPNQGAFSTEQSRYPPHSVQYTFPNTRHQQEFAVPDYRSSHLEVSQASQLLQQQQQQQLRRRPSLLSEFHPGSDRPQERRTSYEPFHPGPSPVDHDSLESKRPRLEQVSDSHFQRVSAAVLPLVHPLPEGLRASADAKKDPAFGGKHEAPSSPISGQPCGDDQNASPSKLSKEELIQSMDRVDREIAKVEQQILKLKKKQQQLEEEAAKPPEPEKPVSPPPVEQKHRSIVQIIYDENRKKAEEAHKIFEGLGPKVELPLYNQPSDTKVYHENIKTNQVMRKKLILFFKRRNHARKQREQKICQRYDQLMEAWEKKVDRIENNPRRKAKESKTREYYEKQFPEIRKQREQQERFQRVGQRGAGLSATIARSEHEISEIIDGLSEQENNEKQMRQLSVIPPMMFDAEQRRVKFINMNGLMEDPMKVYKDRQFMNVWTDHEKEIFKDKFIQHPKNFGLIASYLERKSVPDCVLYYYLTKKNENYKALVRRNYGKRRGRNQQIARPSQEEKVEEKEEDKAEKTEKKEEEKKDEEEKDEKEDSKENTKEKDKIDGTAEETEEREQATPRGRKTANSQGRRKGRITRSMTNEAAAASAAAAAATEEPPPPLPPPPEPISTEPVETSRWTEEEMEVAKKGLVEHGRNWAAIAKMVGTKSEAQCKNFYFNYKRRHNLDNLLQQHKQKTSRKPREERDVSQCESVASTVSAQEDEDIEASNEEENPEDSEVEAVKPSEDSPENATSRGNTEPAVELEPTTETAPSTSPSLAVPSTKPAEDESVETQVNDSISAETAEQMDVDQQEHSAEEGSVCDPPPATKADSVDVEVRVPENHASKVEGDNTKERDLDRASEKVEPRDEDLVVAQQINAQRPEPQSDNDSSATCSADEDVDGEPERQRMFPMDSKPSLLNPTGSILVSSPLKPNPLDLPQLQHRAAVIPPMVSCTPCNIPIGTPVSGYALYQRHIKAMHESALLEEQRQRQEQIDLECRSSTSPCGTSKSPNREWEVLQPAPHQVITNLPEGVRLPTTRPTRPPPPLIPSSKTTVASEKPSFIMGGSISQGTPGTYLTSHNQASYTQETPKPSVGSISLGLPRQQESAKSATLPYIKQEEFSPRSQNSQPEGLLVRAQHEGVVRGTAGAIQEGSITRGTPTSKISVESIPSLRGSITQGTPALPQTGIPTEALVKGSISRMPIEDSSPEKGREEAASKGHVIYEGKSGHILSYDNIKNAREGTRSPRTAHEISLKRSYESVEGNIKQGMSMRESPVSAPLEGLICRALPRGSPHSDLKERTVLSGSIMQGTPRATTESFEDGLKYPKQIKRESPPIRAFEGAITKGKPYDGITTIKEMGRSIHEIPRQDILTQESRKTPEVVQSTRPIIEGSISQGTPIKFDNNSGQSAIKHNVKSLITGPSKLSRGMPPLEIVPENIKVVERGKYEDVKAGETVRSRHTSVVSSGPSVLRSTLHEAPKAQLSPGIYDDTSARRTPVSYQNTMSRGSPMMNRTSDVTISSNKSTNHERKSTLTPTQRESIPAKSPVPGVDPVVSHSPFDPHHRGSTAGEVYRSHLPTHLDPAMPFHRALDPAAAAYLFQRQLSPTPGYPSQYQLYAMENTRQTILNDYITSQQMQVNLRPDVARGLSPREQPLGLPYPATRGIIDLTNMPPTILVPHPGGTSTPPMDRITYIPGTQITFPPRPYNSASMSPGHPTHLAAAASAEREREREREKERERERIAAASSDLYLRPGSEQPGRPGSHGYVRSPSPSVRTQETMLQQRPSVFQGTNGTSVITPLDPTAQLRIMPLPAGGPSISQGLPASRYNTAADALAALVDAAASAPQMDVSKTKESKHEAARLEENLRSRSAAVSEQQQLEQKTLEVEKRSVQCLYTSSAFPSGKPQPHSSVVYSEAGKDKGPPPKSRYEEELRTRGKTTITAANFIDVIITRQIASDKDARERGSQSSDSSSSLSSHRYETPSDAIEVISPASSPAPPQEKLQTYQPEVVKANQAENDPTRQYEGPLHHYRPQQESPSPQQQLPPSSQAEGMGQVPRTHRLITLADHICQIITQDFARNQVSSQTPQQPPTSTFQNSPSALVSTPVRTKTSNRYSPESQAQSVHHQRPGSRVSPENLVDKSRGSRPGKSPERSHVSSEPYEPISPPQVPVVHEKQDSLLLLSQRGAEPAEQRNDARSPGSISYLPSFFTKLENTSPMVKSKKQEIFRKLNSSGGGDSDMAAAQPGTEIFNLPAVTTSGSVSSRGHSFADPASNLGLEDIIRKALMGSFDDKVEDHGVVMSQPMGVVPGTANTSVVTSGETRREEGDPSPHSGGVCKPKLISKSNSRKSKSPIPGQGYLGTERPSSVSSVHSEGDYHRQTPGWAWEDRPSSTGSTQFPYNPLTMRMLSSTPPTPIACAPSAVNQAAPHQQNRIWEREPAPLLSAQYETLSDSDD
structure (smiles),measurement,setting,value
Clc1nnc2ccc(Oc3ccccc3-c3ccccc3)nn12 [STL1267],effect of mutation on NCoR recruitment activity,REV-ERBα F488A,impressive improvement in potency and efficacy
same,cell viability (Fig 2a source data),"HepG2 cells; HepG2, 1uM",100.259 and 103.289 and 114.098 and 100.562 and 101.976 and 107.785 and 108.29 and 110.916
same,cell viability (Fig 2a source data),"HepG2 cells; HepG2, 2uM",94.905 and 99.6528 and 117.735 and 107.532 and 113.391 and 106.219 and 106.421 and 103.794
same,cell viability (Fig 2a source data),"HepG2 cells; HepG2, 5uM",93.8443 and 82.581 and 107.936 and 102.38 and 83.3891 and 98.2385 and 86.8237 and 96.4202
same,cell viability (Fig 2a source data),"HepG2 cells; HepG2, 10uM",88.9955 and 75.7624 and 90.8643 and 100.208 and 77.7322 and 91.3189 and 89.0965 and 88.0359
same,cell viability (Fig 2a source data),"HepG2 cells; HepG2, 20uM",83.6922 and 74.4997 and 94.7535 and 87.2782 and 90.0057 and 93.8948 and 95.4101 and 87.8338
same,effect on cell viability,"HepG2 cells; HepG2 cells, up to the maximum dose examined (20 μM)",no adverse effects on cell viability
same,Ppargca1 relative gene expression,C2C12 cells,8.425 and 7.081 and 5.71
same,lcad relative gene expression,C2C12 cells,25.4657 and 24.2235 and 14.2579
same,lkb1 relative gene expression,C2C12 cells,4.349 and 3.556 and 2.4615
same,mt-Nd1 relative gene expression,C2C12 cells,3.873 and 3.557 and 4.501
same,mt-co1 relative gene expression,C2C12 cells,7.748 and 5.296 and 5.742
same,nampt relative gene expression,C2C12 cells,4.112 and 2.537 and 1.9657
same,scad relative gene expression,C2C12 cells,25.4657 and 24.2235 and 14.2579
same,sirt1 relative gene expression,C2C12 cells,4.33 and 3.474 and 1.956
same,vlcad relative gene expression,C2C12 cells,14.2905 and 16.1127 and 7.599
